Measurements from patent US5399785A, “Tyrosinase activity inhibitor” (Nippon Paint Co., Ltd., priority 1992, dated 1995).

Columns and labels:
tyrosinase (Sigma Co.) = assay: Measurement of tyrosinase activity inhibition (L-DOPA substrate, absorbance at 417 nm); type: biochemical; details: substrate 2 mM L-DOPA, phosphate-potassium buffer pH 6.8, tyrosinase 0.5 mg/ml, absorbance 417 nm; read-out: IC50, concentration of tyrosinase activity inhibitor when the tyrosinase activity inhibition (%) is 50%
Description: The measurement was conducted by the following method.
The reaction reagent used are as follows:
Substrate: 2 mM L-DOPA (Wako Junyaku Co.)
Buffer: 0.1 mM phosphate-potassium solution (pH 6.8)
Inhibitor: 1% solution of the compound of the formula (I), 4-ethylresorcinol, compound of the formula (II), 5-methylresorcinol and compound of the formula (III), 6,6'-di-n-propyl-2,2',4,4'-tetrahydroxydiphenylmethane
Enzyme: tyrosinase (Sigma Co.), 0.5 mg/ml
(2) Measurement of tyrosinase activity inhibition %
In the case of measuring tyrosinase activity inhibition %, a sample solution (No.1 to No.3) was prepared in a spectrophotometric cell (1 ml), by mixing each ingredient in the following formulation shown in Table 1. […]
Formulation of sample solution (ml)
An enzyme solution (0.20 ml) was added to the cell. Three minutes later, the measurement of temporal changes of an absorbance (417 nm) by means of a spectrophotometer had started. The inhibition % was calculated based on the following equation:
Inhibition %=[1-(Ab.3-Ab.1/Ab.2-Ab.1)]×100

[1] = prior-art statement, no test described; cited from earlier work
tyrosinase = details: as described in Japanese Patent Kokai No. 4-169515; cited from earlier work

SMILES	IC50 (tyrosinase (Sigma Co.))	other results
CCCc1cc(O)cc(O)c1Cc1c(O)cc(O)cc1CCC [Example 3, 6,6'-di-n-propyl-2,2',4,4'-tetrahydroxydiphenylmethane]	25 µM	
OC[C@H]1O[C@@H](Oc2ccc(O)cc2)[C@H](O)[C@@H](O)[C@@H]1O [arbutin]		toxicity [1]: has toxicity
CCc1ccc(O)cc1O [drawing 4 Ethyl, 4-ethylresorcinol]	2 µM	
Cc1ccc(O)cc1O [drawing 4 Methyl]	8 µM	
CCCCCCCc1ccc(O)cc1O [drawing 4 n-Heptyl]	0.7 µM	
CCCCCCCCCc1ccc(O)cc1O [drawing 4 n-Nonyl]	0.9 µM	
CCCCCc1ccc(O)cc1O [drawing 4 n-Pentyl]	0.8 µM	
CCCc1ccc(O)cc1O [drawing 4 n-Propyl]	0.9 µM	
CCc1cc(O)cc(O)c1 [drawing 5 Ethyl]	700 µM	
Cc1cc(O)cc(O)c1 [drawing 5 Methyl, 5-methylresorcinol]	5000 µM	
CCCCCCCc1cc(O)cc(O)c1 [drawing 5 n-Heptyl]	200 µM	
CCCCCCCCCc1cc(O)cc(O)c1 [drawing 5 n-Nonyl]	200 µM	
CCCCCc1cc(O)cc(O)c1 [drawing 5 n-Pentyl]	200 µM	
CCCc1cc(O)cc(O)c1 [drawing 5 n-Propyl]	500 µM	
NC[C@H]1CC[C@H](C(=O)O)CC1 [tranexamic acid]		tyrosinase activity inhibition effect (tyrosinase): low tyrosinase activity inhibition effect
